{"source": "patent US20130158024A1", "about": "“TRICYCLIC NECROSTATIN COMPOUNDS” (priority 2005, published 2013)", "key": {"LC3-II": {"test_system": "LC3-II", "experiment": "LC3-II induction (autophagy marker) in cultured cells, western blotting", "assay_type": "cell-based", "description": "FIG. 11 is a set of gels showing the detection of cleaved LC3 in CICD of cultured cells and in ischemic brain injury. […] Equal amounts of cellular proteins were subjected to SDS-PAGE and western blotting with anti-LC3 and tubulin antibodies. Arrows point to the LC3II. […] Isoflurane-anesthetized SV-129 mice were subjected to two hours transient middle cerebral artery (MCA) occlusion by the intraluminal filament techniques. Ischemic and contralateral areas of the brain were collected at indicated times following MCA, lysed in RIPA buffer and equal amount of total protein were subjected to western blotting using anti-LC3 and tubulin antibodies. FIG. 11C is similar to FIG. 11B, except that mice were injected with 2 μL of 4 mM 7-Cl-Nec-1 icy at four and six hours, and brains were collected at eight hours after occlusion.\nIn this and subsequent panels, cell viability was determined via ATP assay. Numbers represent viability normalized to that of the DMSO-treated cells in the absence of TNFα and menadione. Throughout, error bars represent standard deviations. […] Representative images are shown. […] The ratio of LC3-II to tubulin signals was calculated (“Ratio”) and normalized to the value in the control sample. […] In FIG. 28H, expression of beclin-1 (“Bec”) and tubulin (“Tub”) in the stable populations of cells in FIG. 28G was analyzed by western blotting."}, "FADD deficient JK cells": {"test_system": "FADD deficient JK cells", "experiment": "MNNG-induced death of FADD deficient JK cells", "assay_type": "cell-based, human", "conditions": "30 μM Nec-1, 5 hours"}, "[1]": {"test_system": "Jurkat cells expressing dimerizable FADD", "conditions": "dimerizer and zVAD.fmk, 48 hours"}, "[2]": {"test_system": "Primary mouse CD4+ and CD8+ T cells", "experiment": "Activation-induced cell death (AICD) of primary CD4+ and CD8+ T cells", "assay_type": "cell-based", "method": "Cell viability was assessed using Sytox Green (Molecular Probes) (CD8) or propidium iodide exclusion (CD4) assays in FIG. 17A or ATP assay in FIG. 17B. Numbers represent the percentages of live cells normalized to the corresponding compound treated controls lacking αCD3."}, "U937 cells": {"test_system": "U937 cells", "experiment": "Necrosis of U937 cells induced by TNFα and zVAD.fmk (primary and secondary screen), ATP assay", "assay_type": "cell-based, human", "conditions": "U937, 72 hours", "method": "We plated U937 cells in 384-well plates at 5,000-10,000 cells per well in 40-μl phenol red-free RPMI 1640 medium containing 100 μM zVAD.fmk and 40 ng ml^−1 human TNFα using a Multidrop dispenser (Thermo Electron). We added 100 nl of the DiverSetE (5 mg ml^−1 in DMSO, Chembridge) using a Seiko-based custom-built pin transfer robot (Institute of Chemistry and Cell Biology, Harvard Medical School). After 72 hours, we assessed cell viability using a luminescence-based ATP assay (ATPLite-M, PerkinElmer). We also dispensed cells not treated with TNFα in each plate as a positive control. We purchased Nec-1 and other preliminary positive hits from Chembridge for individual retesting.\nUsing a known paradigm of death receptor mediated caspase-independent cell death in human U937 cells, we established a high-throughput screen in 384 well format for small molecule inhibitors of caspase-independent cell death (CICD). In this system, U937 cells were induced to undergo CICD in the presence of TNFα and zVAD.fmk, and the rate of cell death was determined by an ATP-Lite-M assay, a commercial luminescence-based assay measuring cellular ATP levels (Packard). U937 cells were chosen because these cells can be induced to undergo CICD very efficiently upon TNFα/zVAD treatment in the absence of additional, stress-inducing sensitizing stimuli, such as CHX, making this system perfectly suited for reliable identification of CICD inhibitors. Furthermore, rapid suspension growth kinetics of U937 cells results in the availability of large quantities of cells, which translates into robust signals ideal for high throughput screening. ATP-Lite-M assay was chosen because among all the different assay systems tested, it gives the most consistent and robust signal, which is also critical for high throughput screening. Exposure of U937 cells to TNFα alone led to partial cell death, whereas co-treatment with TNFα and caspase inhibitor zVAD.fmk produced significant increase in the amount of cell death and ATP loss consistent with the published observations. In addition, in the presence of zVAD.fmk, the morphology of cell loss changed from apoptosis with cell shrinkage, nuclear fragmentation, membrane blebbing to necrosis, characterized by cell swelling, increase in cytosolic density, and early loss of plasma membrane integrity. Other cell death assays, such as an MTT assay (mitochondrial metabolism) and Sytox assay (permeability of the plasma membrane), were used as alternative means to validate the screen, and consistently produced results similar to those obtained using ATP-Lite-M assay, which confirmed that the ATP-Lite-M assay can be used to accurately measure the extent of CICD.\nIn a primary screen, U-937 cells (5×10^5 or 7.5×10^5 cells/ml) were first exposed to zVAD-fmk (100 μM). Thirty minutes later the same cells were exposed to a chemical compound from the library (5 mg/ml, dissolved in 0.1-0.5 μl of DMSO, giving a final DMSO concentration of 0.3% to 1.5%). After an additional thirty minutes, TNFα (40 ng/ml) was added to the cell culture medium. The cells were then incubated at 37 C for 72 hours, and were then assayed for cellular ATP levels. […] Compounds which maintained cellular ATP levels were compounds which blocked necrosis triggered by zVAD-fmk and TNFα.\nIn a secondary screen, the compounds identified from the first screen, above, to decrease necrosis induced by zVAD-fmk and TNFα were assayed for their potency. Serial dilution of each chemical compound was performed and the compounds were administered to U-937 cells, as per the primary screen. The concentrations of each compound were 70 μM, 23 μM, 8 μM, and 2.5 μM. The level of necrosis occurring in response to zVAD-fmk, TNFα, and the various concentrations of chemical compounds was assayed as described above for the primary screen."}, "Rat hippocampal neurons": {"test_system": "Rat hippocampal neurons", "experiment": "Amyloid-beta toxicity in rat hippocampal neurons, ATP assay", "assay_type": "cell-based", "conditions": "Aβ25-35, 48 or 72 hours", "method": "Viability was determined using an ATP assay. Similar results were also obtained using Aβ1-42."}, "B cell": {"test_system": "B cell", "experiment": "B cell activation (LPS/IL-4) of splenocytes suppressed by zVAD.fmk, FACS", "assay_type": "cell-based, mouse", "conditions": "100 μM zVAD.fmk, 30 μM compound, 72 hours", "method": "Cells were stained with αB220-FITC antibody (Pharmingen), and B cell numbers were determined by FACS. Cell numbers are normalized to the number of cells in unstimulated control, which was set as 100%."}, "RAW264.7 cells": {"test_system": "RAW264.7 cells", "experiment": "LPS/zVAD.fmk-induced CICD of RAW264.7 macrophage cells, ATP assay", "assay_type": "cell-based, mouse", "conditions": "10 ng/ml LPS, 50 or 100 μM zVAD.fmk, 30 μM Nec-1, 24 hours", "method": "Cell viability was determined 24 hours later using an ATP assay. Values represent the percentages of live cells normalized to the control DMSO-treated cells."}}, "note": "Entries after “also recorded” stand apart in the source; their conditions may differ."}
{"substance": "methylthiohydantoin-tryptophane [Nec-1]", "values": [{"measurement": "LC3-II induction caused by rapamycin, in words", "setting": "LC3-II; BALB/c 3T3 cells, 2 μM rapamycin", "result": "had no effect on the LC3-II induction caused by rapamycin"}, {"measurement": "necroptotic LC3-II induction in cells, in words", "setting": "LC3-II; necroptotic stimuli (TNFα, TNFα-zVAD.fmk, FasL-zVAD.fmk)", "result": "the appearance of LC3II was efficiently inhibited by Nec-1; also recorded: efficiently blocked the necroptotic LC3-II induction"}, {"measurement": "protection from MNNG-induced death, in words", "setting": "FADD deficient JK cells", "result": "failed to protect cells from DNA alkylating agent 1-methyl-3-nitro-1-nitrosoguanidine (MNNG)-induced death"}, {"measurement": "inhibition of necrotic death, in words", "setting": "[1]", "result": "inhibited all published examples of necrotic cell death induced by DR activation in the presence of caspase inhibitors"}, {"measurement": "effect on AICD together with zVAD.fmk, in words", "setting": "[2]; 100 μM zVAD.fmk and 30 μM Nec-1, 48 hours", "result": "inhibition of AICD by Nec-1; also recorded: together efficiently abrogated cell death"}, {"measurement": "effect on AICD, compound alone, in words", "setting": "[2]; re-activated CD4+ cells", "result": "displayed very little effect on the viability of re-activated T cells in the absence of zVAD.fmk"}, {"measurement": "inhibition of necrosis induced by TNFα/zVAD.fmk, in words", "setting": "U937 cells", "result": "inhibition of cell death of U937 cells treated with TNFα and zVAD.fmk for 72 hours; also recorded: provided expected protection against TNFα/zVAD.fmk; also recorded: efficiently blocked necroptotic death in U937 cells in a concentration-dependent fashion"}, {"measurement": "attenuation of amyloid-beta toxicity in hippocampal neurons, in words", "setting": "Rat hippocampal neurons", "result": "protection by Nec-1 from amyloid-beta toxicity; also recorded: attenuation of the aggregated amyloid-beta peptide (Aβ) toxicity in primary rat hippocampal neurons"}, {"measurement": "B cell activation in the presence of zVAD.fmk, in words", "setting": "B cell", "result": "promotes B cell activation; also recorded: attenuated suppression of B cell activation by zVAD.fmk"}, {"measurement": "protection from LPS/zVAD.fmk toxicity, in words", "setting": "RAW264.7 cells", "result": "protects from CICD induced by LPS in macrophage cells; also recorded: efficiently inhibited LPS-mediated sensitization of RAW264.7 cells to dose-dependent toxicity of zVAD.fmk"}]}
